Tested on: rats
Assay: Tail-flick (focal-ray) test on rats
Type: in vivo, rat
Details: female Sprague Dawley rats, intravenous, 1.46 mg/kg morphine only, measured 10, 20, 40 and 60 min after application, FIGS. 1 and 2
From the text: The analgesic effect of the inventive active substance combinations and the comparative solutions was investigated in the focal-ray (tail-flick) test on rats according to D'Amour and Smith, J. Pharm. Exp. Ther. Vol. 72, pages 74-79, 1941. For this, female Sprague Dawley rats (Janvier, France) weighing between 120 and 150 g were used.
The rats were each placed in a test cage and the base of the tail exposed to the focused radiant heat from an electric lamp (tail-flick type 50/08/1.bc, Labtec, Dr. Hess). The lamp intensity was set so that the time from when the lamp was switched on until the tail was suddenly jerked away (pain latency) was 3 to 5 seconds in untreated rats. Before the application of the inventive active substance combinations and the comparative solutions, the rats were pre-tested twice within five minutes and the mean value of these measurements calculated as the pre-test mean value. The solutions of the inventive active substance combinations and the comparative solutions were then applied intravenously. The pain measurements were performed at 10, 20, 40 and 60 minutes respectively after the intravenous application. The analgesic effect was determined as an increase in the pain latency (% of the maximum possible antinociceptive effect) according to the following formula: […]

## CN1CC[C@]23c4c5ccc(O)c4O[C@H]2[C@@H](O)C=C[C@H]3[C@H]1C5 [Comparative Example 1, morphine]
  analgesic effect (increase in pain latency, % of the maximum possible antinociceptive effect): good analgesic effect

Source: patent US20040116352A1, “Active substance combination containing a compound with an opioid effect and at least one further compound of formula 1” (priority 2000, published 2004)
